Results as given in US20100234381A1, “BIOMARKERS AND METHODS FOR DETERMINING SENSITIVITY TO VASCULAR ENDOTHELIAL GROWTH FACTOR RECEPTOR-2 MODULATORS” (Bristol-Myers Squibb Company, priority 2007, published 2010).

What was measured:
[1] = tested on: FGF2-stimulated cancer cell lines; experiment: FGF2-stimulated tumor cell proliferation, panel of cancer cell lines; assay type: cell-based; conditions: panel of 16 cell lines; FGF2 2.5 ng/ml; read-out: IC50, FGF2-induced tumor cell proliferation in vitro
Method: […], GEO, L2987, 786-0, A549, A498, Du145, PANC-1, ACHN, HT1197, CALU6, SKOV3, 769-[…], HCT166 and UMUC3. […] Gene expression profiling was performed on RNA samples from tumor cell lines using AFFYMETRIX® GeneChip System.

VEGF gene expression = experiment: VEGF gene expression, AFFYMETRIX human arrays
[2] = tested on: A2780 ovarian cancer cells; experiment: FGF2-induced proliferation of A2780 ovarian cancer cells (modified MTS assay); assay type: cell-based; conditions: A2780 ovarian cancer cells
Method: (§1) Cell proliferation was determined by a modified MTS assay with […] 96® Aqueous One Solution Reagent (Promega, Madison, Wis.). A2780 ovarian cancer cells, MIAPAC-2 pancreatic cancer cells, or GEO colon cancer cells were seeded on 96-well flat-bottomed tissue culture plates (Becton Dickinson, San Jose, Calif.) at a concentration of 3×10^3 cells/well in RPMI 1640 with 1% fetal bovine serum at 37° C. in 5% carbon dioxide/95% air in the presence of 100 units/ml penicillin, 100 μg/ml streptomycin and allowed to adhere to the plate overnight. Then the cells were incubated in the presence of each concentration of 0 (control), 0.3, 0.6, 1.25, 2.5, 5, 10 ng/ml of FGF2 or VEGF for another 72 hours at 37° C. in a humidified atmosphere of 5% CO2 in air. After treatment, 20 μl of […] 96® Aqueous One Solution Reagent was dropped into each well of plates. After 180 minutes incubation, the optical densities (OD) of these samples were directly measured using SPECTRAMAX® plus (Molecular Device, California) and reference wavelength of 490 nm. The OD of control samples was regarded as 100. Each condition was performed with 4 wells and experiment was repeated twice.

[3] = tested on: FGF2 growth factor gene expression; experiment: FGF2 gene expression, AFFYMETRIX human arrays
[4] = tested on: pancreatic cancer cell line MIAPAC-2; experiment: VEGF-induced proliferation of pancreatic cancer cell line MIAPAC-2; assay type: cell-based; conditions: data not shown
Method: as §1

[5] = tested on: ovarian cancer cell line A2870; experiment: VEGF-induced proliferation of ovarian cancer cell line A2870; assay type: cell-based; conditions: data not shown
Method: as §1

[6] = tested on: MIAPAC-2 pancreatic cancer cells; experiment: FGF2-induced proliferation of MIAPAC-2 pancreatic cancer cells (modified MTS assay); assay type: cell-based; conditions: MIAPAC-2 pancreatic cancer cells
Method: as §1

Compound | IC50 [1] | modulation of VEGF gene expression levels (VEGF gene expression) | effect on FGF2-induced cellular proliferation [2] | modulation of FGF2 growth factor gene expression levels [3] | effect on VEGF-induced cellular proliferation [4] | effect on VEGF-induced cellular proliferation [5] | effect on FGF2-induced cellular proliferation [6]
CCN(CC)CCNC(=O)c1c(C)[nH]c(/C=C2\C(=O)Nc3ccc(F)cc32)c1C [sunitinib, reference compound] | ~10 µM | – | – | – | – | – | –
bevacizumab [reference compound] | – | modulated VEGF gene expression levels | did not show significant sensitivity | did not | did not show significant sensitivity | did not show significant sensitivity | did not show significant sensitivity
